The structures appear in SMILES notation. ≈ marks a conversion by molar mass, not a printed value. Where two headings read alike, the source gives them in different places. A value given as a limit tells only on which side of the number the result lay.

Data set [1] has as its system Escherichia coli. Nature of the data set: Escherichia coli in vivo (mouse) ED50.
In data set [2] the test system is Escherichia coli. Nature of the data set: Escherichia coli in vitro MIC (Minimum Inhibitory Concentration). The data set is classed as cell-based.
A further data set concerns central nervous system. Nature of the data set: Turning rat test (minimum active dosage). The data set is classed as in vivo.
The nature of a further data set: LD50 (acute toxicity). The data set is classed as in vivo.
The mark [3] stands for this setting: vs d-amphetamine and d-methamphetamine, see Table 1.

For orientation: ED50 means the dose at which the effect has come halfway, by size or by number of responders. As a reminder, the MIC is the lowest concentration that inhibits growth of the organism. As for `CCn1cc(C(=O)O)c(=O)cc1-c1ccc(NC)c(C)c1` [1-ethyl-6-(3-methyl-4-methylaminophenyl)-4-oxo-1,4-dihydronicotinic acid], the ED50 in the data set with Escherichia coli [1] (po, read-out: ED50) was found to be 3.5 mg/kg. For the same molecule, in the data set on Escherichia coli [2] (read-out: MIC), the minimum inhibitory concentration (MIC) was found to be 0.6 µg/mL (≈ 2.1 µM).
In general, LD50 refers to the dose at which mortality reaches 50%. Lower therefore signals a more toxic substance. As to `CCn1cc(C(=O)O)c(=O)cc1-c1ccccc1` [1-ethyl-4-oxo-6-phenyl-1,4-dihydronicotinic acid], the “Turning rat test minimum active dosage” value in the data set with central nervous system (Arch. int. Pharmacodyn. Ther. 217, 118-130 (1975)) was 1. For the same molecule, the “activity compared with d-amphetamine and d-methamphetamine” value with central nervous system (setting [3]) is recorded as “about the same strong activity”. Also, the “activity compared with nomifensin” value in the data set with central nervous system (vs nomifensin, see Table 1) is on record as “substantially superior activity to nomifensin”. Also, in the data set “LD50 (acute toxicity)” (in vivo, po), the LD50 lay within 300 to 600 mg/kg. In “LD50 (acute toxicity)” (setting [3]), the “LD50 compared with d-amphetamine and d-methamphetamine” value was “substantially lower LD50”. Moreover, the “LD50 compared with nomifensin” value in the data set “LD50 (acute toxicity)” (vs nomifensin, see Table 1) is recorded as “about the same LD50”.
In the data set on Escherichia coli [1] (p.o.), `CCn1cc(C(=O)O)c(=O)cc1-c1ccc(-n2cccc2)cc1` [1-ethyl-6-(4-pyrrolophenyl)-4-oxo-1,4-dihydronicotinic acid] returned an ED50 of 34 mg/kg. In addition, the minimal inhibitory concentration (MIC) with Escherichia coli [2] amounted to 1.2 µg/mL (≈ 3.89 µM).
For `CCn1cc(C(=O)O)c(=O)cc1-c1ccc(N2CCCC2)cc1` [1-ethyl-6-(4-pyrrolidinophenyl)-4-oxo-1,4-dihydronicotinic acid], the ED50 with Escherichia coli [1] (po, read-out: ED50) is 19 mg/kg. For the same molecule, the MIC with Escherichia coli [2] (read-out: MIC) came to 1.2 µg/mL (≈ 3.84 µM).
For `CCn1cc(C(=O)O)c(=O)cc1-c1ccc(OC)cc1` [1-ethyl-6-(4-methoxyphenyl)-4-oxo-1,4-dihydronicotinic acid], the ED50 in the data set on Escherichia coli [1] (po, read-out: ED50) was more than 100 mg/kg. Moreover, the MIC in the data set on Escherichia coli [2] (read-out: MIC) was 2.5 µg/mL (≈ 9.15 µM).
The corresponding values for `CCn1cc(C(=O)O)c(=O)cc1-c1ccc2c(c1)OCO2` [1-ethyl-6-(3,4-methylenedioxyphenyl)-4-oxo-1,4-dihydronicotinic acid] are more than 100 mg/kg and 2.5 µg/mL (≈ 8.7 µM).
For the molecule `CCn1cc(C(=O)O)c(=O)cc1-c1ccc(N(C)C)cc1` [1-ethyl-6-[4-(dimethylamino)-phenyl]-4-oxo-1,4-dihydronicotinic acid], the ED50 in the data set with Escherichia coli [1] (po, read-out: ED50) came out at 8.8 mg/kg. The MIC with Escherichia coli [2] (read-out: MIC) was found to be 0.6 µg/mL (≈ 2.1 µM).
In the case of `CCn1cc(C(=O)O)c(=O)cc1-c1ccc(SC)cc1` [1-ethyl-6-(4-methylthiophenyl)-4-oxo-1,4-dihydronicotinic acid], the ED50 in the data set with Escherichia coli [1] (po, read-out: ED50) was 82 mg/kg. Moreover, in the data set with Escherichia coli [2] (read-out: MIC), the MIC stood at 2.5 µg/mL (≈ 8.64 µM).
Regarding `O=C1CN(/N=C/c2ccc([N+](=O)[O-])o2)C(=O)N1` [Nitrofurantoin, reference compound], in the data set with Escherichia coli [1] (po, read-out: ED50), the ED50 is more than 100 mg/kg. In addition, the MIC in the data set with Escherichia coli [2] (read-out: MIC) worked out at 5 µg/mL (≈ 21 µM).

The record behind these values is patent US4549022A, “4-Pyridone-3-carboxylic acid derivatives” (Hoffmann-La Roche Inc., priority 1978, dated 1985).
